# In patent US20220348878A1, “CELL PROLIFERATION INHIBITOR” (BOURBON CORPORATION, priority 2019, published 2022):
# Key:
# Type in all cases: cell-based
# [1] = system: Human fibroblast; experiment: Culture test with medium exchange every three days (Example 2), cell count; details: for Number of cells: Glutamic acid: 8 mM, average of three wells
# Procedure: As the medium, the DMEM basal medium was used.
# After cell culture, the cells were recovered using a 0.1% by weight trypsin/1 mM EDTA solution, and seeded on a 12-well plate (obtained from Corning Co., Ltd.), and cultured overnight at 37° C. in the presence of 5% CO2 using the above DMEM basal medium. […]
# Note that the number of cells is an average of the numbers of cell counts in three wells, and the counts is measured by the following method.
# (§1) After removing the culture supernatant of the cells by suction and washing the cells by using PBS, the cells were peeled off by using 0.1% trypsin/1 mM EDTA solution (FUJIFILM Wako Pure Chemical Corporation). The reaction of the releasing solution was stopped by adding the medium, and the cells were recovered. And then, the cell counts was conducted by using the Countess™ II Automated Cell Counter (Thermo Fisher Scientific).
# [2] = system: Human fibroblasts; experiment: Test for confirming cell proliferation inhibitory effect (Example 1), phase-contrast observation of cell state; details: Day 9, no medium exchange; for Cell state: number of dead cells and cell proliferation: 1 mM, 5 mM or 8 mM glutamic acid
# Procedure: Human fibroblasts (Catalog No. CC-2511) were cultured in a gelatin-coated cell culture dish (100-mm culture dish, obtained from SANPLATEC CO., LTD.) at 37° C. in the presence of 5% CO2, and used. As the medium, the DMEM basal medium was used.
# (§2) After cell culture, the cells were recovered using a 0.1% by weight trypsin/1 mM EDTA solution, and seeded on a 12-well plate (obtained from Corning Co., Ltd.), and cultured overnight at 37° C. in the presence of 5% CO2 using the above DMEM basal medium.
# (§3) The DMEM basal medium was replaced with the desired cell maintenance medium, and the cells were cultured (“Day 0 after culture”). No medium exchange was performed during the culture period.
# (§4) Further, the same culture test as described above was conducted except that 1 mM, 5 mM or 8 mM of glutamic acid was added to the basal medium for cell culture.
# [3] = system: Human mesenchymal stem cell; experiment: Culture test with medium exchange every three days (Example 2), cell count; details: for Number of cells: Glutamic acid: 8 mM, average of three wells
# Procedure: (§5) Human mesenchymal stem cells (manufactured by Lonza, Catalog No. PT-5006) were cultured in a cell culture dish (100-mm culture dish, obtained from SANPLATEC CO., LTD.) coated with 10 μg/ml Fibronectin (Promocell) at 37° C. in the presence of 5% CO2, and used. As the medium, the DMEM basal medium was used.
# as §2, §3
# The same culture test as in Example 1 was conducted except that the medium was exchanged every three days during the culture period.
# Tables 1 to 2 indicate the number of cells for each culture day. […] Note that the number of cells is an average of the numbers of cell counts in three wells, and the counts is measured by the following method.
# as §1
# [4] = system: Human mesenchymal stem cells; experiment: Test for confirming cell proliferation inhibitory effect (Example 1), phase-contrast observation of cell state; details: Day 9, no medium exchange; for Cell state: number of dead cells and cell proliferation: 1 mM, 5 mM or 8 mM glutamic acid
# Procedure: as §5, §2, §3, §4
# [5] = system: Human mesenchymal stem cell; experiment: Culture test with medium exchange every three days (Example 2), cell count; details: w/o Glc medium instead of w/Glc medium; Glutamic acid 8 mM; FIG. 3, Day 12
# [6] = glucose-free DMEM basal medium (w/o Glc)
# [7] = xylose DMEM basal medium (w/Xy)
smiles,measurement,setting,value
"N[C@@H](CCC(=O)O)C(=O)O [Glutamic acid, glutamic acid]",Number of cells,"[1]; Medium: w/G1c, Day 0",0.07 ×10^5 cells/cm^2
same,Number of cells,"[1]; Medium: w/G1c, Day 6",0.56 ×10^5 cells/cm^2
same,Number of cells,"[1]; Medium: w/G1c, Day 12",1.46 ×10^5 cells/cm^2
same,Number of cells,"[1]; Medium: w/G1c, Day 18",1.72 ×10^5 cells/cm^2
same,Number of cells,"[1]; Medium: w/Xy, Day 0",0.07 ×10^5 cells/cm^2
same,Number of cells,"[1]; Medium: w/Xy, Day 6",0.37 ×10^5 cells/cm^2
same,Number of cells,"[1]; Medium: w/Xy, Day 12",1.13 ×10^5 cells/cm^2
same,Number of cells,"[1]; Medium: w/Xy, Day 18",1.28 ×10^5 cells/cm^2
same,Number of cells,"[1]; Medium: w/o G1c, Day 0",0.07 ×10^5 cells/cm^2
same,Number of cells,"[1]; Medium: w/o G1c, Day 6",0.27 ×10^5 cells/cm^2
same,Number of cells,"[1]; Medium: w/o G1c, Day 12",0.08 ×10^5 cells/cm^2
same,Cell proliferation inhibition compared with the control test with w/Glc medium,"[1]; w/Glc medium, Glutamic acid 8 mM, from Table 1",the cell proliferation was inhibited till 6 days after
same,Cell proliferation inhibitory effect,"[1]; w/Xy medium instead of w/Glc medium, Glutamic acid 8 mM, from Table 1","the cell proliferation inhibitory effect was remarkable, and it was possible to inhibit the cell proliferation for a longer period"
same,Number of cells and dead cells,"[1]; w/o Glc medium instead of w/Glc medium, Glutamic acid 8 mM, from Table 1","the number of cells after 12 days was remarkably less, and the dead cells occurred"
same,Cell state: number of dead cells and cell proliferation,[2]; [6],the number of dead cells decreased and cell proliferation was inhibited as the glutamic acid concentration increased
same,Dead cells observed,"[2]; w/Xy, glutamic acid concentration 1 to 8 mM",dead cells were hardly observed
same,Cell state: number of dead cells and cell proliferation,[2]; [7],the number of dead cells decreased and cell proliferation was inhibited as the glutamic acid concentration increased
same,Number of cells,"[3]; Medium: w/Glc, Day 0",0.356 ×10^4 cells/cm^2
same,Number of cells,"[3]; Medium: w/Glc, Day 3",1.12 ×10^4 cells/cm^2
same,Number of cells,"[3]; Medium: w/Glc, Day 6",2.96 ×10^4 cells/cm^2
same,Number of cells,"[3]; Medium: w/Glc, Day 9",3.23 ×10^4 cells/cm^2
same,Number of cells,"[3]; Medium: w/Glc, Day 12",3.75 ×10^4 cells/cm^2
same,Number of cells,"[3]; Medium: w/Glc, Day 15",4.46 ×10^4 cells/cm^2
same,Number of cells,"[3]; Medium: w/Glc, Day 18",5.37 ×10^4 cells/cm^2
same,Number of cells,"[3]; Medium: w/Xy, Day 0",0.356 ×10^4 cells/cm^2
same,Number of cells,"[3]; Medium: w/Xy, Day 3",0.855 ×10^4 cells/cm^2
same,Number of cells,"[3]; Medium: w/Xy, Day 6",0.998 ×10^4 cells/cm^2
same,Number of cells,"[3]; Medium: w/Xy, Day 9",1.65 ×10^4 cells/cm^2
same,Number of cells,"[3]; Medium: w/Xy, Day 12",1.87 ×10^4 cells/cm^2
same,Number of cells,"[3]; Medium: w/Xy, Day 15",2.77 ×10^4 cells/cm^2
same,Number of cells,"[3]; Medium: w/Xy, Day 18",3.90 ×10^4 cells/cm^2
same,Number of cells,"[3]; Medium: w/o Glc, Day 0",0.356 ×10^4 cells/cm^2
same,Number of cells,"[3]; Medium: w/o Glc, Day 3",0.591 ×10^4 cells/cm^2
same,Number of cells,"[3]; Medium: w/o Glc, Day 6",0.662 ×10^4 cells/cm^2
same,Number of cells,"[3]; Medium: w/o Glc, Day 9",1.06 ×10^4 cells/cm^2
same,Number of cells,"[3]; Medium: w/o Glc, Day 12",1.04 ×10^4 cells/cm^2
same,Number of cells,"[3]; Medium: w/o Glc, Day 15",1.50 ×10^4 cells/cm^2
same,Number of cells,"[3]; Medium: w/o Glc, Day 18",1.58 ×10^4 cells/cm^2
same,Cell proliferation inhibition compared with the control test with w/Glc medium,"[3]; w/Glc medium, Glutamic acid 8 mM, from Table 2",it was possible to inhibit the cell proliferation till 18 days after
same,Cell proliferation inhibitory effect,"[3]; w/Xy medium instead of w/Glc medium, Glutamic acid 8 mM, from Table 2",the cell proliferation inhibitory effect was remarkable
same,Cell state: number of dead cells and cell proliferation,[4]; [6],the number of dead cells decreased and cell proliferation was inhibited as the glutamic acid concentration increased
same,Dead cells observed,"[4]; w/Xy, glutamic acid concentration 5 to 8 mM",dead cells were hardly observed
same,Cell state: number of dead cells and cell proliferation,[4]; [7],the number of dead cells decreased and cell proliferation was inhibited as the glutamic acid concentration increased
same,Condition of cells (whitening around cells),[5],"the ratio of whitening around cells ware large, and the conditions of cells deteriorated"
